In patent US10750743B2, “Pyridazinone herbicides” (E.I. DU PONT DE NEMOURS AND COMPANY, priority 2015, dated 2020):

Columns and labels:
Type in all cases: in vivo
kochia (Kochia scoparia) [1] = experiment: Test A preemergence, directed soil spray, visual injury rating; details: 0 is no effect, 100 is complete control
Outline: (§1)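 Compounds in a surfactant-containing solvent were applied as a directed soil spray preemergence, or postemergence to plants 2-10 cm tall at the one- to two-leaf stage, in loam-sand blend. After about 10 d in the greenhouse, injury was rated visually against untreated controls on a 0-100 scale (100 = complete control).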

[2] = system: ragweed (common ragweed, Ambrosia elatior); experiment: as above; details: 0 is no effect, 100 is complete control
Outline: as §1

[3] = system: barnyardgrass (Echinochloa crus-galli); experiment: as above; details: 0 is no effect, 100 is complete control
Outline: as §1

[4] = system: ryegrass, It. (Italian ryegrass, Lolium multiflorum); experiment: as above; details: 0 is no effect, 100 is complete control
Outline: as §1

[5] = system: pigweed (Amaranthus retroflexus); experiment: as above; details: 0 is no effect, 100 is complete control
Outline: as §1

[6] = system: foxtail, giant (giant foxtail, Setaria faberii); experiment: as above; details: 0 is no effect, 100 is complete control
Outline: as §1

[7] = system: blackgrass (Alopecurus myosuroides); experiment: Test A postemergence application, visual injury rating; details: 0 to 100 scale, 0 no effect, 100 complete control
Outline: as §1

[8] = system: wheat (Triticum aestivum); experiment: as above; details: 0 to 100 scale, 0 no effect, 100 complete control
Outline: as §1

corn (Zea mays) = experiment: as above; details: 0 to 100 scale, 0 no effect, 100 complete control
Outline: as §1

[9] = system: galium (catchweed bedstraw, Galium aparine); experiment: as above; details: 0 to 100 scale, 0 no effect, 100 complete control
Outline: as §1

kochia (Kochia scoparia) [10] = experiment: as above; details: 0 to 100 scale, 0 no effect, 100 complete control
Outline: as §1

[11] = system: ragweed (common ragweed, Ambrosia elatior); experiment: as above; details: 0 to 100 scale, 0 no effect, 100 complete control
Outline: as §1

[12] = system: barnyardgrass (Echinochloa crus-galli); experiment: as above; details: 0 to 100 scale, 0 no effect, 100 complete control
Outline: as §1

[13] = system: ryegrass, It. (Italian ryegrass, Lolium multiflorum); experiment: as above; details: 0 to 100 scale, 0 no effect, 100 complete control
Outline: as §1

[14] = system: pigweed (Amaranthus retroflexus); experiment: as above; details: 0 to 100 scale, 0 no effect, 100 complete control
Outline: as §1

[15] = system: foxtail, giant (giant foxtail, Setaria faberii); experiment: as above; details: 0 to 100 scale, 0 no effect, 100 complete control
Outline: as §1

[16] = system: sedge, umbrella (small-flower umbrella sedge, Cyperus difformis); experiment: Test B flooded paddy test, visual rating; details: Flood, 250 g ai/ha, applied to paddy water, rated after 13 to 15 d
Outline: (§2)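 Plants grown to the 2-leaf stage. At treatment, pots were flooded to 3 cm above the soil, compound was applied directly to the paddy water, and that depth was held throughout. After 13 to 15 d in the greenhouse, response was rated visually against controls on a 0 (no effect) to 100 (complete control) scale.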

[17] = system: ducksalad (Heteranthera limosa); experiment: Test B flooded paddy test, visual rating; details: Flood, 250 g ai/ha, applied to paddy water, rated after 13 to 15 d
Outline: as §2

[18] = system: barnyardgrass (Echinochloa crus-galli); experiment: Test B flooded paddy test, visual rating; details: Flood, 250 g ai/ha, applied to paddy water, rated after 13 to 15 d
Outline: as §2

rice (Oryza sativa) = experiment: Test B flooded paddy test, visual rating; details: Flood, 250 g ai/ha, applied to paddy water, rated after 13 to 15 d
Outline: as §2

Row | SMILES | Plant response rating (0 to 100 scale), Kochia (kochia (Kochia scoparia) [1]; 125 g ai/ha) | Plant response rating (0 to 100 scale), Ragweed ([2]; 125 g ai/ha) | Plant response rating (0 to 100 scale), Barnyardgrass ([3]; 125 g ai/ha) | Plant response rating (0 to 100 scale), Ryegrass, It. ([4]; 125 g ai/ha) | Plant response rating (0 to 100 scale), Pigweed ([5]; 125 g ai/ha) | Plant response rating (0 to 100 scale), Foxtail, Giant ([6]; 125 g ai/ha) | Blackgrass plant response rating ([7]; 125 g ai/ha) | Wheat plant response rating ([8]; 125 g ai/ha) | Corn plant response rating (corn (Zea mays); 125 g ai/ha) | Galium plant response rating ([9]; 125 g ai/ha) | Kochia plant response rating (kochia (Kochia scoparia) [10]; 125 g ai/ha) | Ragweed plant response rating ([11]; 125 g ai/ha) | Barnyardgrass plant response rating ([12]; 125 g ai/ha) | Ryegrass, It. plant response rating ([13]; 125 g ai/ha) | Pigweed plant response rating ([14]; 125 g ai/ha) | Foxtail, Giant plant response rating ([15]; 125 g ai/ha) | Sedge, Umbrella plant response rating (0 to 100 scale, 0 is no effect, 100 is complete control) [16] | Ducksalad plant response rating (0 to 100 scale, 0 is no effect, 100 is complete control) [17] | Barnyardgrass plant response rating (0 to 100 scale, 0 is no effect, 100 is complete control) [18] | Rice plant response rating (0 to 100 scale, 0 is no effect, 100 is complete control) (rice (Oryza sativa)) | further results
1 | CCC(=O)Oc1c(C)nn(C)c(=O)c1-c1c(C)ccc2cc(C)oc12 [Compound 22] | 90 | 80 | 10 | 80 | 100 | 50 | 80 | 0 | 0 | 90 | 90 | 90 | 10 | 80 | 90 | 70 | 0 | 0 | 0 | 0 | Plant response rating (0 to 100 scale), Kochia (kochia (Kochia scoparia) [1]; 31 g ai/ha): 30; Plant response rating (0 to 100 scale), Ragweed ([2]; 31 g ai/ha): 20; Plant response rating (0 to 100 scale), Barnyardgrass ([3]; 31 g ai/ha): 0; Plant response rating (0 to 100 scale), Ryegrass, It. ([4]; 31 g ai/ha): 30; Plant response rating (0 to 100 scale), Pigweed ([5]; 31 g ai/ha): 100; Plant response rating (0 to 100 scale), Foxtail, Giant ([6]; 31 g ai/ha): 0; Blackgrass plant response rating ([7]; 31 g ai/ha): 30; Wheat plant response rating ([8]; 31 g ai/ha): 0; Corn plant response rating (corn (Zea mays); 31 g ai/ha): 0; Galium plant response rating ([9]; 31 g ai/ha): 70; Kochia plant response rating (kochia (Kochia scoparia) [10]; 31 g ai/ha): 70; Ragweed plant response rating ([11]; 31 g ai/ha): 70; Barnyardgrass plant response rating ([12]; 31 g ai/ha): 10; Ryegrass, It. plant response rating ([13]; 31 g ai/ha): 70; Pigweed plant response rating ([14]; 31 g ai/ha): 60; Foxtail, Giant plant response rating ([15]; 31 g ai/ha): 30
2 | CCC(=O)Oc1c(C)nn(C)c(=O)c1-c1c(C)ccc2sccc12 [Compound 31] | 20 | 20 | 10 | 90 | 90 | 10 | 50 | 20 | 20 | 90 | 90 | 70 | 10 | 100 | 90 | 10 | 0 | 0 | 0 | 0 | Plant response rating (0 to 100 scale), Kochia (kochia (Kochia scoparia) [1]; 500 g ai/ha): 90; Plant response rating (0 to 100 scale), Ragweed ([2]; 500 g ai/ha): 90; Plant response rating (0 to 100 scale), Barnyardgrass ([3]; 500 g ai/ha): 90; Plant response rating (0 to 100 scale), Ryegrass, It. ([4]; 500 g ai/ha): 100; Plant response rating (0 to 100 scale), Pigweed ([5]; 500 g ai/ha): 100; Plant response rating (0 to 100 scale), Foxtail, Giant ([6]; 500 g ai/ha): 90; Blackgrass plant response rating ([7]; 500 g ai/ha): 60; Wheat plant response rating ([8]; 500 g ai/ha): 30; Corn plant response rating (corn (Zea mays); 500 g ai/ha): 40; Galium plant response rating ([9]; 500 g ai/ha): 100; Kochia plant response rating (kochia (Kochia scoparia) [10]; 500 g ai/ha): 100; Ragweed plant response rating ([11]; 500 g ai/ha): 80; Barnyardgrass plant response rating ([12]; 500 g ai/ha): 60; Ryegrass, It. plant response rating ([13]; 500 g ai/ha): 100; Pigweed plant response rating ([14]; 500 g ai/ha): 90; Foxtail, Giant plant response rating ([15]; 500 g ai/ha): 80
